Our source for the melting point values is a melting point compilation (Tetko et al.; mined from patent text by program, amines drawn as free bases though some values may be those of a salt).

As a reminder, the melting point is the temperature, or range, at which the solid turns liquid. `COC(=O)c1cccc(S(=O)(=O)C2CCN(CCc3ccc(F)cc3F)CC2)c1` yielded a melting point of 116 to 117 °C.
`O=C(Nc1ccc(N2CCS(=O)(=O)CC2)c(C(F)(F)F)c1)c1cccc2cc(Oc3cc(NC(=O)C4CC4)ncn3)ccc12` registered a melting point of 195 to 205 °C.
`C[C@@H]1O[C@](/C=C/C2CC2)(C(F)(F)F)c2cc(F)ccc2NC1=O` (relative stereo) displayed a melting point of 180 to 182 °C.
Next, `N#Cc1ccc(Cn2cncc2CCCO)cc1`: 121 to 123 °C; `NC1=NC(c2ccc(O)cc2)(c2cccc(-c3cccnc3F)c2)C2=NCCCN12` (stereo not drawn): 164 to 181 °C.
Next, `COc1cc(OC)c(-c2cc3ccccc3s2)cc1C=CC(=O)c1cc(OC)c(O)c(OC)c1`: 85 to 105 °C; `COC1(OC)C(=O)NC(Nc2ncnc3c2ncn3C2OC(CO)C(O)C2O)C1Cl` (stereo not drawn): 110 to 120 °C.
With `COC1CCCn2c1nc(C)c(CCN1CCC(c3noc4cc(F)ccc34)CC1)c2=O` (stereo not drawn), the melting point was 131 °C.
As to `CCCc1nn(C)c2c(=O)[nH]c(-c3cc(C(=O)CN4CCCCC4)ccc3OCC)nc12`, the melting point is 149 to 151 °C.
Consider `CN(C(=O)CCCOc1ccc2nc3n(c(=O)c2c1)CC(=O)N3)C1CCCCC1`, for which the melting point fell in the range of 200 to 202 °C.
Next, `CCc1nc2c(Cl)cc(F)c(-n3c(=O)cc(C(F)(F)F)[nH]c3=O)c2s1`: 178 to 180 °C.
With `O=C(OCc1ccccc1)C1CCc2[nH]c3ccccc3c2C1` (stereo not drawn), the melting point was 104 to 105 °C.
Next, `Nc1cccc(-c2cc3[nH]c4ccc(O)cc4c3c3c2C(=O)NC3=O)c1`: 279 to 284 °C; `Cc1cc2c(s1)CCCN(CCN1CCN(c3ncccn3)CC1)C2=O`: 137 to 139 °C.
Regarding `CCC(c1cccs1)c1c(O)c2c(oc1=O)CCCCCC2` (stereo not drawn), the melting point was 163 to 165 °C.
With `CC(=O)OCC1OC(n2c3ccccc3c3c4c(c5c6cccnc6[nH]c5c32)C(=O)N(CO)C4=O)C(OC(C)=O)C(OC(C)=O)C1OC(C)=O` (stereo not drawn) the figure was 264 to 266 °C; with `CC(C)(C)C1(O)CCN(CC23CC(c4ccc(Cl)cc42)c2ccc(Cl)cc23)CC1`, 194 to 196 °C; with `CC1=C(C(=O)OC(C)(C)C)C(c2cccc(Br)c2)C(C(=O)OC(C)(C)C)=C(C)N1`, 195 to 196 °C.
`O=C(O)c1ccc(C(=O)N(Cc2ccccc2)S(=O)(=O)c2ccc(Br)cc2)cc1` showed a melting point of 193 to 194 °C.
Next, `CN(CC(=O)NO)C(=O)[C@H]1CCCC[C@H]1C(=O)O` (relative stereo): 131 to 133 °C.
`COc1cccc(C(=O)C=C(SC)SC)c1` displayed a melting point of 119 to 121 °C.
With `CNc1ccc2[nH]ncc2c1` the figure was 144 to 146 °C; with `CC1(C)Cc2c(N)c(Cl)cc(C(=O)NCCC34CCCN3CCC4)c2O1`, 189 to 191 °C; with `Cc1nccn1Cc1ccc(COc2cccc3c2CN(C2CCC(=O)NC2=O)C3=O)cc1` (stereo not drawn), 275 to 277 °C.
For `O=C(O)c1ccc2cc(OCCC(c3ccccc3)(c3ccccc3)c3ccccc3)ccc2c1`, the melting point lay in the range of 243 to 244 °C.
Molecule `COc1cc2nc(N)nc(-c3cccc(Cl)c3)c2cc1OC` gave a melting point of 242 to 245 °C.
For `N#CC(N)C=Cc1ccccc1` (stereo not drawn), the melting point turned out to be 79 °C.
Take `C[Si](C)(C)C#Cc1cnn2c(C(F)(F)F)cc(-c3ccc(Cl)cc3)nc12`: the melting point was found to be 198 °C.
For the molecule `O=C(O)CCc1ccc(O)c([N+](=O)[O-])c1`, the melting point lay within 80 to 82 °C.
With `O=c1c2c(nc3ccc(-c4nnn[nH]4)cn13)CSC2` the figure was 285 °C.
With `CC(=O)N1CCc2c(sc(C)c2CCCCN2CCC(c3noc4cc(F)ccc34)CC2)C1`, the melting point is 158 to 160 °C.
`O=[N+]([O-])c1ccc(S(=O)(=O)Nc2cccc(F)c2)c([N+](=O)[O-])c1` came in with a melting point of 172 to 173 °C.
As to `CC(=O)N1CCN=C1COc1cccc(C)c1C`, the melting point lay within 127 to 130 °C.
With `CCCCCCCCCCCC(=O)NCc1ccsc1`, the melting point is 83 to 84 °C.
In the case of `O=C(O)C(=O)Nc1ccc2[nH]c(=O)oc2c1`, the melting point was found to be 254 °C.
With `COc1nc(Cl)cnc1N(C(=O)OCC(C)C)S(=O)(=O)c1ccccc1-c1ccc(O)cc1`, the melting point lay within 175 to 177 °C.
Molecule `CC1(C)CCC(C)(C)c2cc3[nH]c(S)nc3cc21` gave a melting point greater than 300 °C.
Molecule `Cc1ccc(S(=O)(=O)N2c3ccc(Cl)cc3C(O)(c3ccccc3Cl)C2C(=O)N(C)C)cc1` (stereo not drawn) displayed a melting point of 220 to 221 °C.
`O=C(CSCc1cc(Br)cc2[nH]c(=O)c(=O)[nH]c12)Nc1ccccc1` returned a melting point greater than 250 °C.
Next, `COc1ccc(Oc2c(-c3ccc(S(C)(=O)=O)cc3)cnn(-c3cccc(Cl)c3)c2=O)cc1`: 182 to 184 °C; `Clc1cc(Cl)c(Cl)c(CBr)c1`: 40 to 42 °C; `FC(F)(F)c1cc(-n2cc(/C=C/c3nnn[nH]3)c(-c3cccc(Cl)c3)n2)cc(C(F)(F)F)c1`: 228 to 229 °C.
On to `OC1(c2cn(-c3ccc(Br)cc3)nn2)CN2CCC1CC2` (stereo not drawn), for which the melting point came to 214 °C.
Next, `O=C1[C@@H]2CCCN2C(=O)N1c1cc(Cl)cc(Cl)c1`: 169 °C; `O=C(O)CCCCCCC(O)C(=O)O` (stereo not drawn): 86 to 92 °C.
For `O=C(O)c1cc(Cl)cs1`, the melting point turned out to be 138 °C.
Regarding `NC(=O)N(O)CCNC(=O)c1ccc(-c2ccccc2)cc1`, the melting point was 160 to 162 °C.
The molecule `O=C(NCCCc1ccncc1)N(CCCC(F)(F)F)CCC12CC3CC(CC(C3)C1)C2` returned a melting point of 143 to 145 °C.
For `CC(C)Oc1cccc(-n2c(=S)[nH]c3ccccc3c2=O)c1`, the melting point fell in the range of 288 to 290 °C.
For the molecule `CN1CCN(c2ncnc3oc(C4=CC=CN(N5CCOCC5)C4)c(-c4ccccc4)c23)CC1`, the melting point fell in the range of 255 to 257 °C.
In turn, `CC(C)(O)Cc1ccc(N)cc1` returned a melting point of 107 to 108 °C.
With `O=C(NCc1ccc(F)cc1)c1cccc(C(=O)NCc2ccc(F)cc2)c1` the figure was 190 to 191 °C; with `CN1CC(OCC=C(Cl)Cl)(C(F)(F)F)c2cc(Cl)ccc2NC1=O` (stereo not drawn), 149 to 150 °C.
With `COc1ccc(-c2cc(=Nc3c(C)cc(C)cc3C)n(C)c(N3CCNCC3)n2)cc1OC` the figure was 185 to 189 °C.
In turn, `CCOC(=O)C1=C(COCc2cc(=O)[nH]c(N)n2)NC(C)=C(C(=O)OC)C1c1cccc(Cl)c1Cl` (stereo not drawn) registered a melting point of 222 to 225 °C.
`Cc1oc(-c2ccccc2)nc1CCOc1ccc(CCCCCC2OC(=O)NC2=O)cc1` (stereo not drawn) had a melting point of 157 to 158 °C.
In turn, `COC1CCN(c2cc3c(cc2C#Cc2ccccc2)NC(=O)CC(c2cccc(-n4ccnc4)c2)=N3)CC1` yielded a melting point of 222 °C.
On to `c1ccc(CN(Cc2ccccc2)c2cccc3c2ncc2nc4n(c23)CCC4)cc1`, for which the melting point was 275 to 277 °C.
As for `CCOC(=O)c1ccc(OCc2ccccc2)c(OCc2ccccc2)c1`, the melting point is 68 to 69 °C.
With `Nc1ccc(C(=O)Nc2ccc(-c3c[nH]c(=O)cn3)cc2)cc1` the figure was greater than 300 °C.
In the case of `Cc1nc2nn(-c3ccccc3)c(N)c2c(=O)[nH]1`, the melting point lay within 279 to 281 °C.
Next, `CCOC(=O)N1CCC(Nc2nc3cncnc3n2C2CC2)CC1`: 177 °C.
With `CC(=O)Nc1ccc2nc3[nH]c(=O)[nH]c3cc2c1` the figure was greater than 320 °C; with `CCOc1cc(C(CC#N)N2C(=O)c3ccc4ccccc4c3C2=O)ccc1OC` (stereo not drawn), 163 to 165 °C.
As to `CCOC(=O)c1cc([N+](=O)[O-])c(C(=O)O)cc1C(=O)O`, the melting point fell in the range of 189 to 191 °C.
Next, `COc1ccc(-c2nc(-c3ccc(Cl)c(Cl)c3)ncc2C(=O)N2CCOCC2)cc1OC`: 181 °C.
With `CCCCC(=NO)C(=O)OCC` the figure was 43.2 to 46.8 °C; with `O=c1cc(-c2ccc(OCCO)cc2)oc2ncccc12`, 157 to 159 °C; with `CCCN(CC(O)COc1ccc2c(=O)cc(-c3ccccc3)oc2c1)C(=O)OCc1ccccc1` (stereo not drawn), 92 to 94 °C.
`COC(=O)C1=Cc2cc(Cl)ccc2OC1` showed a melting point of 106 to 109 °C.
`CCOC(=O)C1=C(C)NC(N)=C(C(=O)OCC)C1Cc1cccs1` (stereo not drawn) showed a melting point of 170 °C.
Next, `CC(C)(C)CNc1nc(C#N)nc2ccc(OCc3cccnc3)cc12`: 156 to 158 °C.
In turn, `COc1cn(C)c(=O)c(O)n1` came in with a melting point of 201 to 204 °C.
The molecule `N#Cc1ccc(CCCCC(=O)O)cc1` yielded a melting point of 101 to 102 °C.
On to `CNc1cc(CC2(C)CC3C(=C(C)C(C)=C(N)C3C)O2)ccc1-c1ccn[nH]1` (stereo not drawn), for which the melting point is 113 to 117 °C.
The molecule `O=[N+]([O-])c1cc2nc(O)c(O)nc2cc1C(F)(F)F` gave a melting point greater than 300 °C.
With `CC(N)C(N)CC(=O)c1ccccc1` (stereo not drawn) the figure was 106 to 107 °C.
With `COC(=O)c1nc2cc(Cl)c(OC)c(Cl)c2c(O)c1C(=O)OC` the figure was 210 to 211 °C; with `CCn1nc(-c2nc(C(N)=O)c(N)nc2-c2ccccc2)ccc1=O`, greater than 250 °C.
`CCCc1c(OCCCCCC(=O)c2cc(OC)c(OC)cc2F)ccc(C(=O)OC)c1O`: the melting point was in the range of 127 to 129 °C.
With `CCCCCCCNC(=O)Nc1ccccc1C(=O)N1CCCN(C(c2ccccc2)c2ccccc2)CC1` the figure was 125 °C; with `O=C(Oc1ccccc1)C1=C(O)CCn2c1nc1ccccc12`, 176 to 178 °C.
As for `O=C1CCC(N2C(=O)c3ccc(CNC(=O)c4ccc(Cl)cc4)cc3C2=O)C(=O)N1` (stereo not drawn), the melting point lay within 178 to 180 °C.
Turning to `CC(NC(=O)CCl)(c1ccccc1)c1ccccc1`, the melting point lay within 73 to 74 °C.
The molecule `COc1c(N2CCC(N)C(C)(C)C2)c(F)c(N)c2c(=O)c(C(=O)O)cn(C3CC3)c12` (stereo not drawn) had a melting point of 205 °C.
With `CC(C)c1ccc(S(=O)(=O)n2c(Cc3ccc(C(=O)O)c(F)c3)cc3cc(C(F)(F)F)ccc32)cc1`, the melting point is 197 °C.
Next, `CCOC(=O)N1CCC(Nc2ccc(Cl)cc2N)CC1`: 150 °C; `CCCCCCCCCCCCCCCC(=O)N1C[C@H](O)C[C@H]1C(=O)OCCCCCCCCCCCC`: 39 to 44 °C.
